≈ marks a conversion by molar mass, not a printed value.
Tests used:
Type in all cases: cell-based
[1] = test system: S. flexneri ATCC 25875; assay: Reporter phage (Shfl25875::luxAB) bioluminescence antibiotic susceptibility assay; details: 5 h growth with antibiotic, infection with reporter phage, read after 20 min
Experimental: (§1) Cells (5×10^5 CFU/mL) and antibiotics were prepared in cation-adjusted Mueller Hinton broth according to CLSI methodology. […] The same Shigella inoculum was grown for 5 h at 35° C. in the presence of antibiotics, infected with Shfl::luxAB, and bioluminescence assayed after 20 min.
(§2) Therefore, the ability of Shfl25875::luxAB to confer bioluminescence signal to Shigella spp. in the presence of antibiotics was compared to the standard CLSI broth microdilution method. […] Cells were incubated with a range of antibiotic concentrations in microtiter plates, incubated at 35° C., and assessed for growth (A625) after 20 h as per the CLSI protocol, or bioluminescence following infection by Shfl25875::luxAB.

[2] = test system: E. coli ATCC 25922; assay: microbe, parasite or virus in culture; details: Escherichia coli, ATCC25922; cation-adjusted Mueller Hinton broth, 35° C., 20 h; within the acceptable range
Experimental: as §1

[3] = test system: S. flexneri ATCC 25875; assay: microbe, parasite or virus in culture; details: Shigella flexneri, ATCC25875; growth (A625) after 20 h at 35° C.; read-out: minimum inhibitory concentration
Experimental: as §1, §2

Compound: CC1(C)S[C@@H]2[C@H](NC(=O)[C@H](N)c3ccccc3)C(=O)N2[C@H]1C(=O)O [ampicillin]
- Bioluminescence at antibiotic concentrations at the minimum inhibitory concentration or higher [1]: at or close to background
- MIC [2]: 2 mg/L (≈ 5.72 µM)
- MIC [3]: 1 mg/L (≈ 2.86 µM)
